Consider 15 compounds from patent US11230542B2, “Inhibitors of integrated stress response pathway” (Praxis Biotech LLC, priority 2017, dated 2022).

Like-named read-outs stand apart in the source and are kept apart here.

For experiment [1], the system named is ATF4. Nature of the experiment: ATF4 expression inhibition assay (thapsigargin-stressed HEK293T cells, western blot). The class given is cell-based. To be noted: Homo sapiens, HEK-293T; for inhibition at 0.1 µM: 3 h with 100 nM thapsigargin (Tg) and 100 nM test compound; for inhibition at 0.1 µM / inhibition at 1 µM: Tg alone 0%, untreated 100%; for inhibition at 1 µM: 3 h with 100 nM thapsigargin (Tg) and 1 μM test compound; for IC50: 3 h with 100 nM Tg, test compound 1 nM to 1 μM. On the procedure:
HEK293T cells were maintained at 37° C. and 5% CO2 in Dulbecco's Modified Eagle's Media (DMEM) supplemented with 10% fetal bovine serum (FBS), 2 mM L-glutamine, 100 U/ml penicillin, and 100 μg/ml streptomycin. […] Cells without treatment or cells treated with Tg alone were used as controls.
After 3 hours of treatment with Tg and the test compound, cells were lysed with SDS-PAGE lysis buffer. Lysates were transferred to 1.5 ml tubes and sonicated for 3 min, and total protein amounts were quantified using BCA Protein Assay Kit (Pierce). Equal amount of proteins were loaded on SDS-PAGE gels. Proteins were transferred onto 0.2 μm PVDF membranes (BioRad) and probed with primary antibodies diluted in Tris-buffered saline supplemented with 0.1% Tween 20 and 3% bovine serum albumin.
ATF4 (11815) antibody was used as primary antibody (Cell Signaling Technologies). A horseradish peroxidase (HRP)-conjugated secondary antibody (Rockland) was employed to detect immune-reactive bands using enhanced chemiluminescence (ECL Western Blotting Substrate, Pierce). Quantification of protein bands was done by densitometry using ImageJ.
Percentages of ATF4 inhibition after induction with Tg in the presence of 100 nM or 1 μM of certain test compounds are shown in Table 2 and FIG. 1. Percentage of ATF4 inhibition was calculated as the percent reduction normalized to Tg treatment (0% inhibition) and untreated cells (100% inhibition). Also shown in Table 2 is the calculated IC50 for the test compounds. […] Accordingly, inhibition of ATF4 expression as a result of the test compound indicates suppression of the ISR pathway.

For experiment [2], the system named is CHO cells. Nature of the experiment: Protein translation assay (puromycin incorporation in CHO cells, unstressed or Tg-stressed). It is filed as cell-based, Chinese hamster. To be noted: for activity at 0.1 µM / activity at 1 µM: Cricetulus griseus, media alone 100%; for activity at 0.1 µM: read-out: % Recovery of protein expression (100 nM test compound); for protein translation: summary of Table 3; for protein synthesis in a cell versus ATF4 translation: under ISR-stressed or non-ISR stressed conditions. On the procedure:
CHO cells were maintained at 37° C. and 5% CO2 in DMEM supplemented with 10% fetal bovine serum (FBS), 2 mM L-glutamine, 100 U/ml penicillin, and 100 μg/ml streptomycin. After reaching 80% of confluence, cells were detached and seeded on 6 well plates in complete media, allowed to recover overnight and treated for 2 hours with 1 μM of the test compound (to assess protein synthesis levels in unstressed condition), or for 1 hour with 100 nM and 1 μM of the test compound and then co-treated with 300 nM Tg and 100 nM and 1 μM of the test compound (to assess the recovery of protein synthesis in a stressed condition). Cells treated with Tg alone were used as controls.
After the 2 hours treatments, media were replaced by adding 10 μg/ml puromycin (Sigma Aldrich) in complete media for 30 min. Media were removed and cells were lysed with SDS-PAGE lysis buffer. Lysates were transferred to 1.5 ml tubes and sonicated for 3 minutes and total protein amount were quantified using BCA Protein Assay Kit (Pierce). Equal amount of protein (30 μg) was loaded on SDS-PAGE gels. Proteins were transferred onto 0.2 μm PVDF membranes (BioRad) and probed with primary antibodies diluted in Tris-buffered saline supplemented with 0.1% Tween 20 and 3% bovine serum albumin.
Puromycin (12D10) antibody was used as primary antibody (Merck Millipore). A HRP-conjugated secondary antibody (Rockland) was employed to detect immune-reactive bands using enhanced chemiluminescence (ECL Western Blotting Substrate, Pierce). Quantification of protein bands was done by densitometry using ImageJ.
Percent increase of protein synthesis in unstressed cells (without Tg treatment) in the presence of media alone or certain test compounds is shown in Table 3 and FIG. 2. The percentage levels were normalized to the media alone condition, which correspond to 100% protein synthesis.
Percent recovery of protein synthesis in stressed cells (with Tg treatment) due to the test compounds at 100 nM or 1 μM is shown in FIGS. 3A and 3B, respectively, and in Table 3. The levels were normalized to the media alone and to Tg alone conditions, which correspond to 100% and 0% respectively.

[3] abbreviates: CHO cells stressed with 300 nM Tg, Tg alone 0%.
Where [4] appears, read: CHO cells stressed with 300 nM Tg, Tg alone 0%, read-out: % Recovery of protein expression (1 μM test compound).
The mark [5] stands for this setting: unstressed CHO cells, 2 h, read-out: % Protein expression relative to untreated (1 μM test compound).

Regarding `O=C(COc1ccc(Cl)cc1)N[C@H]1CC[C@H](NC[C@H](O)COc2ccc(Cl)cc2)CC1` (single isomer, unassigned) [Compound 4, (−)-2-(4-chlorophenoxy)-N-(4-((3-(4-chlorophenoxy)-2-hydroxypropyl)amino)cyclohexyl)acetamide], in experiment [1], the inhibition at 0.1 µM is 31% and testing at 1 µM gave an inhibition of 54%.
Take `O=C(COc1ccc(Cl)c(F)c1)N[C@H]1CC[C@H](NC[C@@H](O)COc2ccc(Cl)c(F)c2)CC1` (single isomer, unassigned) [Compound 6, (+)-2-(4-chloro-3-fluorophenoxy)-N-(4-((3-(4-chloro-3-fluorophenoxy)-2-hydroxypropyl)amino)cyclohexyl)acetamide]: the activity at 0.1 µM in experiment [2] (setting [3]) is 60.2%. In addition, the activity at 1 µM in experiment [2] (setting [4]) worked out at 197%. Moreover, the activity at 1 µM in experiment [2] (setting [5]) is 195%. Besides, in experiment [1], inhibition was half-maximal at 82.8 nM (IC50), the inhibition at 0.1 µM stood at 52% and testing at 1 µM gave an inhibition of 83%.
Regarding `O=C(COc1ccc(Cl)c(F)c1)N[C@H]1CC[C@H](NC[C@H](O)COc2ccc(Cl)c(F)c2)CC1` (single isomer, unassigned) [Compound 7, (−)-2-(4-chloro-3-fluorophenoxy)-N-(4-((3-(4-chloro-3-fluorophenoxy)-2-hydroxypropyl)amino)cyclohexyl)acetamide], in experiment [1], the inhibition at 0.1 µM was 0% and the inhibition at 1 µM is 0%.
On to `O=C(COc1ccc(Cl)cc1)NC1CCN(C[C@@H](O)COc2ccc(Cl)cc2)CC1` (single isomer, unassigned) [Compound 16, (+)-2-(4-chlorophenoxy)-N-(1-(3-(4-chlorophenoxy)-2-hydroxypropyl)piperidin-4-yl)acetamide], for which, in experiment [1], the inhibition at 0.1 µM stood at 0% and the inhibition at 1 µM amounted to 38%.
`O=C(COc1ccc(Cl)c(F)c1)NC1CCN(C[C@@H](O)COc2ccc(Cl)c(F)c2)CC1` (single isomer, unassigned) [Compound 27, (+)-2-(4-chloro-3-fluorophenoxy)-N-(1-(3-(4-chloro-3-fluorophenoxy)-2-hydroxypropyl)piperidin-4-yl)acetamide]: in experiment [1], 0.1 µM produced 54% inhibition and the inhibition at 1 µM stood at 73%.
Consider `O=C(NC1CCN(C[C@H](O)COc2ccc(Cl)c(F)c2)CC1)c1cc2cc(Cl)ccc2o1` (single isomer, unassigned) [Compound 149, (+)-5-chloro-N-(1-(3-(4-chloro-3-fluorophenoxy)-2-hydroxypropyl)piperidin-4-yl)benzofuran-2-carboxamide], for which the activity at 0.1 µM in experiment [2] (setting [3]) came out at 107%. Also, the activity at 1 µM in experiment [2] (setting [4]) stood at 281%. The activity at 1 µM in experiment [2] (setting [5]) worked out at 138%. Further, in experiment [1], half-maximal inhibition (IC50) required 29.9 nM, testing at 0.1 µM gave an inhibition of 62% and at 1 µM the inhibition was 96%.
Take `O=C(NC1CCN(C[C@@H](O)COc2ccc(Cl)c(F)c2)CC1)c1cc2cc(Cl)ccc2o1` (single isomer, unassigned) [Compound 150, (−)-5-chloro-N-(1-(3-(4-chloro-3-fluorophenoxy)-2-hydroxypropyl)piperidin-4-yl)benzofuran-2-carboxamide]: the activity at 0.1 µM in experiment [2] (setting [3]) was determined as 61%. Moreover, in experiment [2] (setting [4]), the activity at 1 µM came out at 200%. Moreover, the activity at 1 µM in experiment [2] (setting [5]) stood at 184%. In experiment [2], the protein translation result is given as “increased protein translation” and the “protein synthesis in a cell versus ATF4 translation” value is given as “increase protein synthesis in a cell without full inhibition of ATF4 translation”. In experiment [1], this compound gave an inhibition at 0.1 µM of 0% and an inhibition at 1 µM of 43%.
For the compound `O=C(NC1CCN(C[C@@H](O)COc2ccc(Cl)c(F)c2)CC1)c1ccc2cc(Cl)ccc2n1` (single isomer, unassigned) [Compound 153, (−)-6-chloro-N-(1-(3-(4-chloro-3-fluorophenoxy)-2-hydroxypropyl)piperidin-4-yl)quinoline-2-carboxamide], the activity at 0.1 µM in experiment [2] (setting [3]) is 51.5%. For the same compound, in experiment [2] (setting [4]), the activity at 1 µM is 236%. Also, the activity at 1 µM in experiment [2] (setting [5]) is 323%. Also, in experiment [2], the protein translation entry was “increased protein translation” and the “protein synthesis in a cell versus ATF4 translation” value is “increase protein synthesis in a cell without full inhibition of ATF4 translation”. In experiment [1], this compound came in with an inhibition at 0.1 µM of 0% and an inhibition at 1 µM of 0%.
Consider `O=C(N[C@H]1CC[C@H](NC[C@@H](O)COc2ccc(Cl)c(F)c2)CC1)c1cc2cc(Cl)ccc2o1` (single isomer, unassigned) [Compound 154, (+)-trans-5-chloro-N-(4-((3-(4-chloro-3-fluorophenoxy)-2-hydroxypropyl)amino)cyclohexyl)benzofuran-2-carboxamide], for which, in experiment [2] (setting [3]), the activity at 0.1 µM stood at 96.3%. The activity at 1 µM in experiment [2] (setting [4]) stood at 234%. For the same compound, the activity at 1 µM in experiment [2] (setting [5]) worked out at 188%. In experiment [1], half-maximal inhibition (IC50) was put at 13.7 nM, the inhibition at 0.1 µM was 92% and testing at 1 µM gave an inhibition of 96%.
On to `O=C(COc1ccc(Cl)cc1)N[C@H]1CC[C@H](NC(=O)[C@@H]2CNc3cc(Cl)ccc3O2)CC1` (single isomer, unassigned) [Compound 158, (+)-trans-6-chloro-N-(4-(2-(4-chlorophenoxy)acetamido)cyclohexyl)-3,4-dihydro-2H-benzo[b][1,4]oxazine-2-carboxamide], for which, in experiment [2] (setting [3]), the activity at 0.1 µM stood at 86.8%. Moreover, in experiment [2] (setting [4]), the activity at 1 µM turned out to be 199%. Further, the activity at 1 µM in experiment [2] (setting [5]) is 168%. In addition, in experiment [1], half-maximal inhibition (IC50) was put at 9.1 nM, the inhibition at 0.1 µM worked out at 96% and the inhibition at 1 µM was 96%.
`O=C(COc1ccc(Cl)cc1)N[C@H]1CC[C@H](NC(=O)C(O)COc2ccc(Cl)cc2)CC1` (stereo partly drawn) [Compound 8, trans-3-(4-chlorophenoxy)-N-(4-(2-(4-chlorophenoxy)acetamido)cyclohexyl)-2-hydroxypropanamide]: in experiment [1], the inhibition at 0.1 µM is 0% and at 1 µM the inhibition was 0%.
Consider `O=C(COc1ccc(Cl)c(F)c1)N[C@H]1CC[C@H](NC(=O)C(O)COc2ccc(Cl)c(F)c2)CC1` (stereo partly drawn) [Compound 9, trans-3-(4-chloro-3-fluorophenoxy)-N-(4-(2-(4-chloro-3-fluorophenoxy)acetamido)cyclohexyl)-2-hydroxypropanamide], for which, in experiment [1], at 0.1 µM the inhibition was 12% and 1 µM produced 20% inhibition.
As for `O=C(COc1ccc(Cl)c(F)c1)N[C@H]1CCCN(CC(O)COc2ccc(Cl)c(F)c2)C1` (stereo partly drawn) [Compound 11, 2-(4-chloro-3-fluorophenoxy)-N-((3S)-1-(3-(4-chloro-3-fluorophenoxy)-2-hydroxypropyl)piperidin-3-yl)acetamide], in experiment [1], the inhibition at 0.1 µM was 0% and the inhibition at 1 µM amounted to 0%.
On to `O=C(COc1ccc(Cl)c(F)c1)N[C@@H]1CCCN(CC(O)COc2ccc(Cl)c(F)c2)C1` (stereo partly drawn) [Compound 12, 2-(4-chloro-3-fluorophenoxy)-N-((3R)-1-(3-(4-chloro-3-fluorophenoxy)-2-hydroxypropyl)piperidin-3-yl)acetamide], for which, in experiment [1], at 0.1 µM the inhibition was 0% and the inhibition at 1 µM stood at 0%.
Consider `O=C(COc1ccc(Cl)c(F)c1)N1CCC(NCC(O)COc2ccc(Cl)c(F)c2)CC1` (centres unmarked) [Compound 14, 2-(4-chloro-3-fluorophenoxy)-1-(4-((3-(4-chloro-3-fluorophenoxy)-2-hydroxypropyl)amino)piperidin-1-yl)ethan-1-one], for which, in experiment [1], the inhibition at 0.1 µM was 0% and the inhibition at 1 µM came to 0%.

As a reminder, the inhibition is the change of the read-out against control, counted positive when it falls. A lower inhibition goes with a weak effect. The IC50 is the concentration needed to halve the response being measured.
